PMC7246325 (Drug Design, Development and Therapy, 2020)
Like-named read-outs stand apart in the source and are kept apart here.

Assays:
[1] = molecular target: T1, CYP3A4 (Homo sapiens, UniProt P08684); test: In vitro CYP3A4 inhibition; type: biochemical
[2] = molecular target: CYP2C9 (Homo sapiens, UniProt P11712); test: In vitro CYP2C9 inhibition; type: biochemical
[3] = molecular target: T1, CYP3A4; test: Predicted AUC ratios for CYP3A4 substrates; details: dose (750 mg)/250 mL
[4] = Safety assessment; type: in vivo, patients with advanced solid tumors; details: 23 patients
[5] = cancer patients; cited from earlier work
[6] = system: CYP3A4; details: among human CYP450 isoenzymes; cited from earlier work
[7] = system: CYP2C9; details: among human CYP450 isoenzymes; cited from earlier work
[8] = molecular target: T1, CYP3A4; test: In vitro CYP3A4 inhibition; type: biochemical; remark: listed apart in the source
[9] = any grade, 750 mg apatinib daily
[10] = warfarin 3 mg, apatinib 750 mg daily, vs single administration

T1 sequence (P08684 whole entry): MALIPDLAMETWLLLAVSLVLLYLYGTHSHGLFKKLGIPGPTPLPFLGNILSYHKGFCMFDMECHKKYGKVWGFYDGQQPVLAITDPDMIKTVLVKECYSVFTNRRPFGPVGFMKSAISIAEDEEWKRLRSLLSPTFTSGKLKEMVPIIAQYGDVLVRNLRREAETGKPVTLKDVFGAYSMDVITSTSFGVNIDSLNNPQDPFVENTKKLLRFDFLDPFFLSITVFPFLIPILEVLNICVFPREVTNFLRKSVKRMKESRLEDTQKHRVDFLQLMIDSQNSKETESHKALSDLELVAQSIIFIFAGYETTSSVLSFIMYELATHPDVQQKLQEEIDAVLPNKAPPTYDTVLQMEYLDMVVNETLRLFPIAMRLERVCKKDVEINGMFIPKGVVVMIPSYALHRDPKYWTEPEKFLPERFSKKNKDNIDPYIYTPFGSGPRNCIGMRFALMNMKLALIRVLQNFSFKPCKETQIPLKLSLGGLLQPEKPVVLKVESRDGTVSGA
Sequence of CYP2C9 (Homo sapiens, UniProt P11712) (P11712 whole entry): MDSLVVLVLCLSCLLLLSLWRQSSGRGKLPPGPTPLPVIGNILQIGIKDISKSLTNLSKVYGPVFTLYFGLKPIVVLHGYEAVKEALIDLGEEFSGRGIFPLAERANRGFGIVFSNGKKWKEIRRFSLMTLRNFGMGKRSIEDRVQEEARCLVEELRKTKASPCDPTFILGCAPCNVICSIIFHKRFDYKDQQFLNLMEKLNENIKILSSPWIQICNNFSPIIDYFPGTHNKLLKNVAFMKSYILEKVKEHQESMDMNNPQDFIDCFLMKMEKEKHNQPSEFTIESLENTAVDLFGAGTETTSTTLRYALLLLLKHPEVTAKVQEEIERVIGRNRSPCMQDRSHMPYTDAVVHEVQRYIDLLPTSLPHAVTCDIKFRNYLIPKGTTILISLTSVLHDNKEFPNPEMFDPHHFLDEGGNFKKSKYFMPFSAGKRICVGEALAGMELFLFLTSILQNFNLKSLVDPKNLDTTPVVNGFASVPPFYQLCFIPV

N#CC1(c2ccc(NC(=O)c3cccnc3NCc3ccncc3)cc2)CCCC1 [apatinib]
IC50 [1]: 1800 nM | Ki [1]: 710 nM | IC50 [2]: 440 nM | Ki [2]: 310 nM | Igut [3]: 6078 µM | Incidence of bilirubin increased (adverse event related to apatinib) [4, 9]: 21.7% | Incidence of fatigue (adverse event related to apatinib) [4, 9]: 21.7% | Incidence of hand-foot syndrome (adverse event related to apatinib) [4, 9]: 17.4% | Incidence of headache (adverse event related to apatinib) [4, 9]: 47.8% | Incidence of hypertension (adverse event related to apatinib) [4, 9]: 73.9% | Incidence of leukopenia (adverse event related to apatinib) [4, 9]: 21.7% | Incidence of proteinuria (adverse event related to apatinib) [4, 9]: 26.1% | Incidence of thrombocytopenia (adverse event related to apatinib) [4, 9]: 30.4% | Incidence of grade 3/4 drug-related hypertension ([4]; grade 3/4, 750 mg apatinib daily): 17.4% | t1/2 [5]: 8.01 to 10.2 h | Contribution of CYP3A4 to the in vitro (oxidative) metabolism [6]: 62.6% | Contribution of CYP2C9 to the oxidative metabolism [7]: 13.1% | IC50 [8]: 830 nM | Ki [8]: 270 nM

CC(=O)C[C@@H](c1ccccc1)c1c(O)c2ccccc2oc1=O [S-Warfarin, S-warfarin]
AUC0-∞ (3 mg warfarin oral + 750 mg apatinib daily, N=20, GMean (CV%)): 12600 (35.0) h×ng/mL | Tmax (3 mg warfarin oral + 750 mg apatinib daily, N=20, median (range)): 1.00 (0.500–3.00) h | AUC0-∞ (3 mg warfarin oral, alone, N=23, GMean (CV%)): 5190 (26.8) h×ng/mL | Tmax (3 mg warfarin oral, alone, N=23, median (range)): 0.500 (0.500–3.00) h | Difference of Tmax before and after coadministration of apatinib (S-warfarin, Wilcoxon signed-rank test): no significant difference | Increase of AUC0–t (exposure) on coadministration with apatinib [10]: 92% | Increase of Cmax on coadministration with apatinib [10]: 24%
